Tests used:
Pyocyanin = Pyocyanin Inhibition Assay; type: cell-based, P. aeruginosa, strain PA14; details: Pseudomonas aeruginosa, PA14, 24 h, read-out: Pyocyanin Inhibition No. IC50 (μM)
Method: Test compounds are dissolved in DMSO at 10 mM and stored at −20° C. until needed. Seven test concentrations from 0.0032 micromolar to 31.6 micromolar are used for each compound.
P. aeruginosa, strain PA14, is inoculated into 5 mL of LB broth in a 15-mL sterile glass culture tube and incubated overnight at 37° C. under shaking (˜240 rpm). The overnight culture is then diluted in LB Broth to give an OD600=0.04 (T0 culture). Colony Forming Units (CFU)/mL of the overnight culture and T0 culture are determined by a series of 1:10 serial dilutions in sterile saline. 4×20 μL of each dilution is seeded on LB agar plates and incubated at 35±2° C. for 20 hours. CFU/mL is determined from the dilution that gives 2 to 50 colonies/20 μL.
For concentration response curve (CRC) experiments, internal standard, 2-((5-nitro-1H-indol-2-yl)thio)-N-(4-phenoxyphenyl)acetamide, a compound previously identified as an MvfR inhibitor (see Example 1 of US 2014-0066454 (WO 2012/116010)), and test compounds are serially diluted in DMSO to 200 times each final concentration (0.5% DMSO fmal), and 1 μL/well is dispensed in duplicate into 2 mL wells of a 96-well deep well plate. 200 μL/well of T0 culture are added to each internal standard/test compound well. Wells containing only T0 culture (200 200 μL/well) are used to determine pyocyanin control level and wells containing only LB broth (blank wells) are also included in the plate.
The plate is sealed and incubated at 37° C. under shaking (˜700 rpm) using a microtiter shaker for 24 hours. At the end of the incubation period, the plate is centrifuged at 4,000 g for 40 minutes at room temperature, 100 μL/well of the supernatant is transferred to a 96-microtiter PS flat-bottom plate, and absorbance at 690 nm is determined using SPECTROstar® Nano microplate reader. Pyocyanin concentration (M) is determined using the equation C=A690/(ε×d), where ε is the Pyocyanin extinction coefficient, at A690 nm ε is 4,310 M^−1 cm^−1 and d is the experimentally derived pathlength. The level of pyocyanin in the presence of test compound is expressed as percentage of inhibition with respect to the control. Curve fitting and IC50 determination were carried out using a four-parameter logistic model using GraphPad Prism v.5.

PQS [1] = experiment: Assay for PQS Inhibition (6 Hour Incubation); type: cell-based, P. aeruginosa PA14 wild-type strain; details: Pseudomonas aeruginosa, PA14, 6 h, read-out: PQS (6 hr) IC50 (μM)
Method: (§1) A concentration range with 7 test concentrations is chosen for each test compound. Typically concentration ranges for the PQS and HHQ assays are from 0.03 to 31.6 μM. Compounds are prepared in solvent, usually DMSO, at either 200 or 500 times the final test concentration.
(§2) P. aeruginosa PA14 wild-type strain is inoculated into 5 ml LB broth in a 15 ml sterile glass culture tube and incubated overnight at 37° C. under shaking (˜240 rpm). After overnight incubation, the bacterial culture is diluted in fresh LB broth to an OD600 nm=0.04, and 5 mL aliquots of the diluted bacterial culture are distributed into 15-mL glass tubes. 10 μL of test compound at 500 times the final test concentration or 25 μL of test compound at 200 times the final test concentration or solvent alone is added to each of the bacterial suspension tubes, and the tubes are incubated at 37° C. under shaking (300 rpm) for 6 hours. At the end of the incubation period, a 0.5 mL aliquot of bacterial suspension is transferred from each 15 mL glass tube, after shaking, to a 2 mL polypropylene vial. 0.5 mL of methanol-containing D4-PQS (deuterated-PQS), D4-HHQ (deuterated-HHQ) and 2% acetic acid are added to each 2 mL vial and each vial is vigorously shaken. The vials are then centrifuged for 5 minutes at 12,000 g, and 200 μL of supernatant from each vial is transferred to a glass vial (vials crimp 0.2 mL), and the sealed vials are kept at 4° C. until LC-MS/MS analysis is performed. HAQs quantification is carried out analyzing samples in discrete batches together with spiked standards and blank samples. Calibration curves are constructed from HAQs standards, and respective deuterated forms are used as Internal Standards (IS), to calculate the concentration of analytes in the sample and improve the precision of the assay. The back-calculated concentrations of the calibration standards from the calibration curve shall be within ±20% of the nominal values, the range of the analytical method is determined, and the lower and upper limit of quantification specified.
(§3) Liquid chromatography separations are performed using Agilent HP1100 system (Agilent Technologies) coupled with a CTC PAL Autosampler (CTC Analytics AG). Chromatographic retention is obtained using a monolithic column (Chromolith® RP-18, 50×4.6 mm). The solvent system consists of water containing 0.1% (v/v) formic acid (A) and acetonitrile containing 0.1% (v/v) formic acid (B). The gradient elution profile is chosen as follows: 0 min: 70% A (1500 μL/min), 0.3 min: 70% A (1500 μL/min), 1.3 min: 5% A (2500 μL/min), 1.6 min: 5% A (2500 μL/min).
(§4) The MS/MS analysis is performed with a API4000 series mass spectrometer (AB Sciex™) operating in Multiple Reaction Monitoring (MRM) mode and equipped with a TIS ion source. The specific ions monitored are PQS (m/z 260→m/z 175), D4-PQS (m/z 264→m/z 179), HHQ (m/z 244→m/z 159) and D4-HHQ (m/z 248→m/z 163). PQS and HHQ in presence of different test compound concentrations are expressed as percentage of inhibition of the basal level in control samples.

HHQ = experiment: Assay for HHQ Inhibition (6 Hour Incubation); type: cell-based, P. aeruginosa PA14 wild-type strain; details: Pseudomonas aeruginosa, PA14, 6 h, read-out: HHQ (6 hr) IC50 (μM)
Method: as §1, §2, §3, §4

PQS [2] = experiment: PQS Inhibition Assay (24 Hour Incubation); type: cell-based, P. aeruginosa PA14 wild-type strain; details: Pseudomonas aeruginosa, PA14, 24 h, read-out: PQS (24 hr) IC50 (μM)
Method: Test compounds are dissolved in DMSO at 10 mM and stored at −20° C. until needed. Seven test concentrations from 0.0032 micromolar to 31.6 micromolar are used for each compound. P. aeruginosa PA14 wild-type strain is inoculated into 5 mL LB broth in a 15-mL sterile glass culture tube and incubated overnight at 37° C. under shaking (˜240 rpm). The overnight culture is then diluted in LB Broth to give an OD600=0.04 (T0 culture). Colony Forming Units (CFU)/mL of the overnight culture and T0 culture are determined by a series of 1:10 serial dilutions in sterile saline. 4×20 μL of each dilution is seeded on LB agar plates and incubated at 35±2° C. for 20 hours. CFU/mL is determined from the dilution that gives 2 to 50 colonies/20 μL.
For concentration response curve (CRC) experiments, internal standard (2-((5-nitro-1H-indol-2-yl)thio)-N-(4-phenoxyphenyl)acetamide)) and test compounds are serially diluted in DMSO to give 200 times of each final concentration (0.5% DMSO final), and 1 μL/well is dispensed in duplicate into 2-mL wells of a 96 well deep well plate. 200 μL/well of T0 culture is added to each internal standard/test compound well used to determine PQS control level. Wells containing only LB broth (blank wells) are also included in the plate.
The plate is sealed and incubated at 37° C. for 24 hours under shaking (˜700 rpm) using a microtiter shaker. At the end of the incubation period, 150 μL/well of the deep well plate culture are transferred in a new non-sterile plate, and 150 μL/well of methanol containing tetra-deuterated PQS (D4-PQS) and 2% acetic acid are added to each well. The plate is sealed, shaken at high speed for 5 minutes and centrifuged at 4,000 g for 40 minutes at room temperature. 100 μL/well of the supernatant is then transferred to glass vials (vials crimp 0.2 mL) and kept at 4° C. until LC-MS/MS analysis.
PQSs quantification is carried out by analyzing samples in discrete batches together with spiked standards and blank samples.
Calibration curves are constructed from PQS standards, and respective deuterated PQS is used as an Internal Standards (IS) to calculate the concentration of analytes in the sample and improve the precision of the assay. The back-calculated concentrations of the calibration standards from the calibration curve shall be within ±20% of the nominal values, the range of the analytical method is determined, and the lower and upper limit of quantification specified.
as §3, with “performed using an Agilent HP1100” for “performed using Agilent HP1100”
The MS/MS analysis is performed with an API4000 series mass spectrometer (AB Sciex™) operating in Multiple Reaction Monitoring (MRM) mode and equipped with a TIS ion source. The specific ions monitored are PQS (m/z 260→m/z 175) and D4-PQS (m/z 264→m/z 179). The computer systems used in this study to acquire and quantify data may be an Analyst™ v1.5.
PQS in the presence of different concentrations of test compound are expressed as percentage of inhibition of the basal level in control samples. Curve fitting and IC50 estimations are carried out using a four parameter logistic model using GraphPad Prism v.5 program.

Row | Structure (SMILES) | IC50 (Pyocyanin) | IC50 (PQS [1]) | IC50 (HHQ) | IC50 (PQS [2])
1 | O=C(CNc1nc2ccc(Cl)cc2[nH]1)Nc1ccc(Oc2cccnc2)cc1 [Compound 159, 2-((5-chloro-1H-benzo[d]imidazol-2-yl)amino)-N-(4-(pyridin-3-yloxy)phenyl)acetamide] | 0.1 to 1 µM | < 1 µM | < 1 µM | –
2 | N#Cc1ccc(NC(=O)CNc2nc3cc(Cl)ccc3o2)cc1 [Compound 75, 2-((5-chlorobenzo[d]oxazol-2-yl)amino)-N-(4-cyanophenyl)acetamide] | > 10 µM | – | – | > 10 µM
3 | N#Cc1ccc(C(=O)NCCSc2nc3cc(Cl)ccc3[nH]2)cc1 [Compound 88, N-(2-((5-chloro-1H-benzo[d]imidazol-2-yl)thio)ethyl)-4-cyanobenzamide] | > 10 µM | – | – | > 10 µM
4 | N#Cc1ccc(NC(=O)CNc2nc3cc(Cl)ccc3s2)cc1 [Compound 72, 2-(5-Chlorobenzo[d]thiazol-2-ylamino)-N-(4-cyanophenyl)acetamide] | > 10 µM | – | – | > 10 µM
5 | N#Cc1ccc(NC(=O)CNc2ccc(F)cc2)cc1 [Compound 155] | > 10 µM | – | – | > 10 µM

— patent publication US9643933B2, “Compounds useful as antibiotic tolerance inhibitors” (priority 2013, dated 2017)
